{"source": "patent US20250032525A1", "about": "(priority 2021, published 2025)", "key": {"A431-B1": {"tested_on": "A431-B1", "experiment": "In vitro cytotoxicity", "type": "cell-based", "from_the_text": "(§1) Experiments were repeated at least 3 times."}, "A431-G2": {"tested_on": "A431-G2", "experiment": "In vitro cytotoxicity", "type": "cell-based", "from_the_text": "as §1"}, "A431": {"tested_on": "A431", "experiment": "In vitro cytotoxicity", "type": "cell-based", "conditions": "Homo sapiens, A-431", "from_the_text": "as §1"}, "MDA-MB-468": {"tested_on": "MDA-MB-468", "experiment": "In vitro cytotoxicity", "type": "cell-based", "conditions": "Homo sapiens; MDA-MB-468 breast cancer cell line", "from_the_text": "as §1"}, "MES-SA/Dx5": {"tested_on": "MES-SA/Dx5", "experiment": "In vitro cytotoxicity", "type": "cell-based", "conditions": "Homo sapiens", "from_the_text": "as §1"}, "MES-SA": {"tested_on": "MES-SA", "experiment": "In vitro cytotoxicity", "type": "cell-based", "conditions": "Homo sapiens", "from_the_text": "as §1"}, "P388/ADR": {"tested_on": "P388/ADR", "experiment": "In vitro cytotoxicity", "type": "cell-based", "conditions": "Mus musculus", "from_the_text": "as §1"}, "P388": {"tested_on": "P388", "experiment": "In vitro cytotoxicity", "type": "cell-based", "conditions": "Mus musculus", "from_the_text": "as §1"}, "MES-SA xenografts": {"tested_on": "MES-SA xenografts", "experiment": "MES-SA xenograft tumors in mice", "type": "in vivo, NSG mice", "conditions": "MES-SA derived tumors; DOX 2 mg/kg iv. once per week", "procedure": "(§2) 2×10^6 cells from each cell line in 200 μl serum-free culture media DMEM were inoculated into NOD.Cg-Prkdc^scid Il2rg^tm1Wjl/SzJ (NSG) mice subcutaneously in the left flank and treatment was initiated when tumors reached 200 mm^3. Mice were treated with saline (n=3 per each cell lines). […] The size of the tumors was measured every second day with a digital caliper."}, "MES-SA/Dx5 xenografts": {"tested_on": "MES-SA/Dx5 xenografts", "experiment": "MES-SA/Dx5 xenograft tumors in mice", "type": "in vivo, NSG mice", "conditions": "multidrug resistant MES-SA/Dx5 tumors; DOX 2 mg/kg iv., LiPyDau 0.5 mg/kg iv. once per week", "procedure": "as §2"}, "MALME-3M": {"tested_on": "MALME-3M", "conditions": "NCI-60 database, sulforhodamine B, read-out: Cytotoxic IC50; cited from earlier work"}, "SK-MEL-28": {"tested_on": "SK-MEL-28", "conditions": "SK-MEL-28, NCI-60 database, sulforhodamine B; read-out: Cytotoxic IC50; cited from earlier work"}, "SK-MEL-2": {"tested_on": "SK-MEL-2", "conditions": "SK-MEL-2, NCI-60 database, sulforhodamine B; read-out: Cytotoxic IC50; cited from earlier work"}, "HT29": {"tested_on": "HT29", "conditions": "HT29, NCI-60 database, sulforhodamine B; read-out: Cytotoxic IC50; cited from earlier work"}, "HCT-116": {"tested_on": "HCT-116", "conditions": "HCT-116, NCI-60 database, sulforhodamine B; read-out: Cytotoxic IC50; cited from earlier work"}, "KM12": {"tested_on": "KM12", "conditions": "KM12, NCI-60 database, sulforhodamine B; read-out: Cytotoxic IC50; cited from earlier work"}, "EKVX": {"tested_on": "EKVX", "conditions": "NCI-60 database, sulforhodamine B, read-out: Cytotoxic IC50; cited from earlier work"}, "PC-3": {"tested_on": "PC-3", "conditions": "PC-3, NCI-60 database, sulforhodamine B; read-out: Cytotoxic IC50; cited from earlier work"}, "DU-145": {"tested_on": "DU-145", "conditions": "DU-145, NCI-60 database, sulforhodamine B; read-out: Cytotoxic IC50; cited from earlier work"}, "OVCAR-3": {"tested_on": "OVCAR-3", "conditions": "OVCAR-3, NCI-60 database, sulforhodamine B; read-out: Cytotoxic IC50; cited from earlier work"}, "OVCAR-5": {"tested_on": "OVCAR-5", "conditions": "OVCAR-5, NCI-60 database, sulforhodamine B; read-out: Cytotoxic IC50; cited from earlier work"}, "A498": {"tested_on": "A498", "conditions": "A498, NCI-60 database, sulforhodamine B; read-out: Cytotoxic IC50; cited from earlier work"}, "T-47D [1]": {"tested_on": "T-47D", "conditions": "NCI-60 database, sulforhodamine B, read-out: Cytotoxic IC50; cited from earlier work"}, "BT-549 [2]": {"tested_on": "BT-549", "conditions": "BT-549, NCI-60 database, sulforhodamine B; read-out: Cytotoxic IC50; cited from earlier work"}, "T-47D [3]": {"tested_on": "T-47D", "experiment": "In vitro cytotoxicity (PrestoBlue)", "conditions": "Homo sapiens, T47D", "experimental": "(§3) Cells were seeded in 40 μl medium on 384 well plates by an automatic liquid handling machine (Hamilton StarLet) in a density of 2500 cells/well. Adherent cells were cultured for 24 h before the addition of the compounds, while drugs were added to non-adherent cells 2 h after cell seeding. The drugs were serially diluted, and dispensed in an additional 20 μl. Cells were incubated for an additional 72 h, cytotoxicity was assessed by the PrestoBlue viability reagent (Thermo Fisher). Experiments were repeated at least 3 times."}, "HS 578T": {"tested_on": "HS 578T", "experiment": "In vitro cytotoxicity (PrestoBlue)", "conditions": "Homo sapiens", "experimental": "as §3"}, "BT-549 [4]": {"tested_on": "BT-549", "experiment": "In vitro cytotoxicity (PrestoBlue)", "conditions": "Homo sapiens", "experimental": "as §3"}, "[5]": {"experiment": "Storage stability of PyDau", "type": "physicochemical", "conditions": "monomer form, −20° C.", "procedure": "2-pyrrolinodoxorubicin (PyDox) TFA salt was developed in 1996 (Nagy A. et al.; Proc. Natl. Acad. Sci. U.S.A. 93 (1996). 2464-2469). In the first step Nagy et al. applied 4-iodobutyraldehyde, that was prepared from 2-(3-chloropropyl)-1,3-dioxolane followed by Shiff-base formation and cyclization. The synthesis of 4-iodobutyraldehyde—which is the key step for efficient synthesis-was later improved by Studenovsky et al. (Eur. J. Pharm. Sci. 42 (2011). 156-163). […] Therefore, a new approach was investigated for the preparation of PyDau. First, the stable and storable 4-bromobutyraldehyde was applied for the synthesis. The reaction was carried out in DCM in the presence of excess DIPEA under nitrogen atmosphere at room temperature (RT) for 10 h."}, "[6]": {"tested_on": "HT-29 human colon adenocarcinoma cells", "conditions": "reported by Mező; cited from earlier work"}, "MCF7": {"tested_on": "MCF7", "experiment": "In vitro cytotoxicity (PrestoBlue)", "conditions": "Homo sapiens, MCF7, 72 h, read-out: Cytotoxic IC50", "experimental": "as §3"}}, "note": "Where two headings read alike, the source gives them in different places."}
{"smiles": "COc1cccc2c1C(=O)c1c(O)c3c(c(O)c1C2=O)C[C@@](O)(C(=O)CO)C[C@@H]3O[C@H]1C[C@H](N)[C@H](O)[C@H](C)O1", "note": "[DOX, doxorubicin]", "values": [{"measurement": "IC50", "setting": "A431-B1", "result": 2450, "unit": "nM"}, {"measurement": "IC50", "setting": "A431-G2", "result": 170, "unit": "nM"}, {"measurement": "IC50", "setting": "A431", "result": 65, "unit": "nM"}, {"measurement": "IC50", "setting": "MDA-MB-468", "result": 20, "unit": "nM"}, {"measurement": "IC50", "setting": "MES-SA/Dx5; MES-SA/Dx5, read-out: IC50", "result": 2880, "unit": "nM"}, {"measurement": "IC50", "setting": "MES-SA/Dx5; MES-SA/Dx5, presence of 1 μM tariquidar, read-out: IC50 + TQ", "result": 20, "unit": "nM"}, {"measurement": "IC50", "setting": "MES-SA; presence of 1 μM tariquidar, read-out: IC50 + TQ", "result": 20, "unit": "nM"}, {"measurement": "IC50", "setting": "MES-SA; read-out: IC50", "result": 72, "unit": "nM"}, {"measurement": "IC50", "setting": "P388/ADR; read-out: IC50", "result": 2040, "unit": "nM"}, {"measurement": "IC50", "setting": "P388/ADR; read-out: IC50 + TQ, heading: IC50 + TQ, presence of 1 μM tariquidar", "result": 690, "unit": "nM"}, {"measurement": "IC50", "setting": "P388", "result": 150, "unit": "nM"}, {"measurement": "Overall survival", "setting": "MES-SA xenografts", "result": "increased the overall survival"}, {"measurement": "Response / overall survival", "setting": "MES-SA/Dx5 xenografts", "result": "largely ineffective"}, {"measurement": "IC50", "setting": "MALME-3M", "result": 51.9, "unit": "nM"}, {"measurement": "IC50", "setting": "SK-MEL-28", "result": 242, "unit": "nM"}, {"measurement": "IC50", "setting": "SK-MEL-2", "result": 237, "unit": "nM"}, {"measurement": "IC50", "setting": "HT29", "result": 171, "unit": "nM"}, {"measurement": "IC50", "setting": "HCT-116", "result": 66.1, "unit": "nM"}, {"measurement": "IC50", "setting": "KM12", "result": 223, "unit": "nM"}, {"measurement": "IC50", "setting": "EKVX", "result": 484, "unit": "nM"}, {"measurement": "IC50", "setting": "PC-3", "result": 246, "unit": "nM"}, {"measurement": "IC50", "setting": "DU-145", "result": 100, "unit": "nM"}, {"measurement": "IC50", "setting": "OVCAR-3", "result": 335, "unit": "nM"}, {"measurement": "IC50", "setting": "OVCAR-5", "result": 588, "unit": "nM"}, {"measurement": "IC50", "setting": "A498", "result": 85.5, "unit": "nM"}, {"measurement": "IC50", "setting": "T-47D [1]", "result": 83, "unit": "nM"}, {"measurement": "IC50", "setting": "BT-549 [2]", "result": 212, "unit": "nM"}, {"measurement": "IC50", "setting": "T-47D [3]", "result": 30, "unit": "nM"}, {"measurement": "IC50", "setting": "HS 578T", "result": 80, "unit": "nM"}, {"measurement": "IC50", "setting": "BT-549 [4]; BT-549", "result": 20, "unit": "nM"}]}
{"smiles": "COc1cccc2c1C(=O)c1c(O)c3c(c(O)c1C2=O)C[C@@](O)(C(C)=O)C[C@@H]3O[C@H]1C[C@H]2[C@H](OC3CCCN32)[C@H](C)O1", "note": "(some centres unmarked) [PyDau, 2-deamino-2-pyrrolino-daunorubicin]", "values": [{"measurement": "IC50", "setting": "MES-SA/Dx5; MES-SA/Dx5", "result": 2.51, "unit": "nM"}, {"measurement": "IC50", "setting": "MES-SA", "result": 1.35, "unit": "nM"}, {"measurement": "Stability on storage", "setting": "[5]", "result": "stable for long time"}, {"measurement": "IC50", "setting": "[6]", "result": 0.2, "unit": "nM"}, {"measurement": "IC50", "setting": "MCF7", "result": 5.73, "unit": "nM"}, {"measurement": "IC50", "setting": "T-47D [3]; 72 h, read-out: Cytotoxic IC50", "result": 4.25, "unit": "nM"}, {"measurement": "IC50", "setting": "HS 578T; 72 h, read-out: Cytotoxic IC50", "result": 1.77, "unit": "nM"}, {"measurement": "IC50", "setting": "BT-549 [4]; BT-549, 72 h, read-out: Cytotoxic IC50", "result": 4.68, "unit": "nM"}]}
